The conditions of the data set: 351.55 K; Liquid; Ebulliometric method (Recirculating still).

± gives the expanded uncertainty stated by the source.

As a reminder, the vapor or sublimation pressure is the equilibrium pressure above the liquid or solid.

Take `CCO` [ethanol]: the “vapor or sublimation pressure” value turned out to be 101.32 ± 1.1 kPa.
